According to BindingDB's records for doi:10.1002/(SICI)1098-2396(200002)35:2<79::AID-SYN1>3.0.CO;2-X (Institut De Recherches Servier, 2000):

Molecular target: T1, Alpha-2C adrenergic receptor (Homo sapiens, UniProt P18825)
T1 sequence (P18825 whole entry): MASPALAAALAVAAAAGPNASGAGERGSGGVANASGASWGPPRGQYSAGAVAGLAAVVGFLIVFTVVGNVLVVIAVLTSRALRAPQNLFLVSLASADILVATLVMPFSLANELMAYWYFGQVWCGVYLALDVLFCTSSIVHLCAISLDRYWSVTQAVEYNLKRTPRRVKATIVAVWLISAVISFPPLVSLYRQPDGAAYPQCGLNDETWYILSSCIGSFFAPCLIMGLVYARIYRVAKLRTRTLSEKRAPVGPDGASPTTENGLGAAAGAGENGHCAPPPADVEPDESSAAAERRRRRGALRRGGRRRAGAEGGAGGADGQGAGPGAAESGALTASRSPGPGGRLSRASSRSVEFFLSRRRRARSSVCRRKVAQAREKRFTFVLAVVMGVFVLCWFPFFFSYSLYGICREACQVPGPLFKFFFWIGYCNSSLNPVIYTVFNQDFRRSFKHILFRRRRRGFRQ

## Fc1cccc2c1OC1CNCC1O2 (stereo unspecified) [CAS_105182-45-4]
  Ki: 1.58 nM
